Data from PubChem BioAssay (NCI).
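Values below derive from 48-hour exposures of cells grown in 96-well plates, with endpoints linearly interpolated between the two concentrations bracketing the appropriate inhibition level. The concentration for 50% growth inhibition is given as GI50. TGI is the concentration that stops growth completely.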

How the values were obtained:
Test in all cases: inhibition of tumour cell growth, NCI panel, 48 h
NCI-H226 lung = system: NCI-H226 lung
NCI-H23 lung = system: NCI-H23 lung
NCI-H460 lung = system: NCI-H460 lung
NCI-H522 lung = system: NCI-H522 lung
NCI/ADR-RES ovarian = system: NCI/ADR-RES ovarian
OVCAR-3 ovarian = system: OVCAR-3 ovarian
OVCAR-4 ovarian = system: OVCAR-4 ovarian
OVCAR-5 ovarian = system: OVCAR-5 ovarian
OVCAR-8 ovarian = system: OVCAR-8 ovarian
PC-3 prostate = system: PC-3 prostate
RPMI-8226 leukemia = system: RPMI-8226 leukemia
RXF 393 renal = system: RXF 393 renal
SF-268 CNS = system: SF-268 CNS
SF-295 CNS = system: SF-295 CNS
SF-539 CNS = system: SF-539 CNS
SK-MEL-2 melanoma = system: SK-MEL-2 melanoma
SK-MEL-28 melanoma = system: SK-MEL-28 melanoma
SK-MEL-5 melanoma = system: SK-MEL-5 melanoma
SK-OV-3 ovarian = system: SK-OV-3 ovarian
SN12C renal = system: SN12C renal
SNB-19 CNS = system: SNB-19 CNS
SNB-75 CNS = system: SNB-75 CNS
SW-620 colon = system: SW-620 colon
TK-10 renal = system: TK-10 renal
U251 CNS = system: U251 CNS
UACC-257 melanoma = system: UACC-257 melanoma
UACC-62 melanoma = system: UACC-62 melanoma
UO-31 renal = system: UO-31 renal

C=C1CC2(OC1=O)C(=O)N(C)c1ccc(I)cc12 (stereo not given)
TGI (NCI-H226 lung): 9.9 µM | GI50 (NCI-H23 lung): 1740 nM | TGI (NCI-H23 lung): 4.58 µM | GI50 (NCI-H460 lung): 2750 nM | TGI (NCI-H460 lung): 11.1 µM | GI50 (NCI-H522 lung): 444 nM | TGI (NCI-H522 lung): 1800 nM | GI50 (NCI/ADR-RES ovarian): 1850 nM | TGI (NCI/ADR-RES ovarian): 4.68 µM | GI50 (OVCAR-3 ovarian): 422 nM | TGI (OVCAR-3 ovarian): 1430 nM | GI50 (OVCAR-4 ovarian): 1270 nM | TGI (OVCAR-4 ovarian): 5.43 µM | GI50 (OVCAR-5 ovarian): 2130 nM | TGI (OVCAR-5 ovarian): 4.84 µM | GI50 (OVCAR-8 ovarian): 1760 nM | TGI (OVCAR-8 ovarian): 4.9 µM | GI50 (PC-3 prostate): 2290 nM | TGI (PC-3 prostate): 7.86 µM | GI50 (RPMI-8226 leukemia): 558 nM | TGI (RPMI-8226 leukemia): 2530 nM | GI50 (RXF 393 renal): 481 nM | TGI (RXF 393 renal): 1180 nM | GI50 (SF-268 CNS): 2010 nM | TGI (SF-268 CNS): 5.01 µM | GI50 (SF-295 CNS): 2300 nM | TGI (SF-295 CNS): 8.16 µM | GI50 (SF-539 CNS): 1380 nM | TGI (SF-539 CNS): 2800 nM | GI50 (SK-MEL-2 melanoma): 2160 nM | TGI (SK-MEL-2 melanoma): 6.28 µM | GI50 (SK-MEL-28 melanoma): 1730 nM | TGI (SK-MEL-28 melanoma): 3.6 µM | GI50 (SK-MEL-5 melanoma): 2260 nM | TGI (SK-MEL-5 melanoma): 6.37 µM | GI50 (SK-OV-3 ovarian): 9.95 µM | TGI (SK-OV-3 ovarian): 22.5 µM | GI50 (SN12C renal): 1710 nM | TGI (SN12C renal): 4.02 µM | GI50 (SNB-19 CNS): 6.98 µM | TGI (SNB-19 CNS): 20.2 µM | GI50 (SNB-75 CNS): 3.69 µM | TGI (SNB-75 CNS): 12.7 µM | GI50 (SW-620 colon): 566 nM | TGI (SW-620 colon): 2040 nM | GI50 (TK-10 renal): 1440 nM | TGI (TK-10 renal): 3.17 µM | GI50 (U251 CNS): 1810 nM | TGI (U251 CNS): 5.21 µM | GI50 (UACC-257 melanoma): 909 nM | TGI (UACC-257 melanoma): 2490 nM | GI50 (UACC-62 melanoma): 1250 nM | TGI (UACC-62 melanoma): 2690 nM | GI50 (UO-31 renal): 622 nM | TGI (UO-31 renal): 2030 nM
